{"source": "patent US20100144873A1", "about": "“TREATMENT OF MYOCARDITIS USING FTS” (RAMOT AT TEL-AVIV UNIVERSITY LTD., priority 2007, published 2010)", "key": {"[1]": {"test_system": "IgG anti-myosin antibodies", "assay": "IgG anti-myosin antibody levels in sera by ELISA", "type": "in vivo, Lewis rat", "details": "FTS 5 mg/kg i.p., p<0.05 vs control", "procedure": "(§1) Porcine cardiac myosin (Sigma) was dissolved in PBS to a concentration of 0.4 μg/ul. Each rat was immunized by a single subcutaneous injection in both footpads on day 0 with an emulsion containing 1 mg of cardiac myosin with an equal volume of complete Freund's adjuvant containing 10.0 mg/mL of heat-killed Mycobacterium tuberculosis.\n(§2) FTS was provided by Concordia Pharmaceuticals, Inc. (Ft. Lauderdale, Fla.). FTS was stored in chloroform, which was evaporated under a stream of nitrogen immediately before use. The powder was dissolved in absolute ethanol and diluted to the desired concentration in sterile PBS made basic with NaOH. Carrier solution (1000 μl) containing 1.35 mg of FTS (5 mg/kg) was injected intraperitoneally (i.p.) into each rat. Control solution was prepared at the same time, starting with PBS and absolute ethanol.\n(§3) Two groups of rats were induced to develop EAM by immunization with cardiac myosin according to two protocols. In Protocol 1 (prevention regimen), FTS or PBS (control) was administered two (2) days prior to myosin immunization at a dose of 5 mg/kg (FTS pre-treatment before immunization). Thereafter, dosing was continued for a period of fourteen (14) days with administration of FTS or PBS occurring every other day. […]"}, "[2]": {"test_system": "experimental autoimmune myocarditis (EAM)", "assay": "Histopathology, Masson trichrome: scar area (collagen deposition) in EAM", "type": "in vivo, Lewis rat", "details": "FTS 5 mg/kg i.p., vs control rats", "procedure": "as §1, §2\nTwo groups of rats were induced to develop EAM by immunization with cardiac myosin according to two protocols. In Protocol 1 (prevention regimen), FTS or PBS (control) was administered two (2) days prior to myosin immunization at a dose of 5 mg/kg (FTS pre-treatment before immunization). […]\nIn order to evaluate the severity of scaring of the heart tissue, Masson trichrome staining was performed to assess collagen deposition in the three study groups. […] FIGS. 4B and C illustrate typical representations of the stained sections and quantitative analysis of the results."}, "[3]": {"test_system": "Ras and its downstream signaling effectors in lymphocytes", "assay": "Western immunoblotting of total Ras, Erk, P-Erk, Akt, P-Akt in lymphocytes of treated rats", "type": "in vivo, Lewis rat", "procedure": "(§4) Two groups of rats were induced to develop EAM by immunization with cardiac myosin according to two protocols. In Protocol 1 (prevention regimen), FTS or PBS (control) was administered two (2) days prior to myosin immunization at a dose of 5 mg/kg (FTS pre-treatment before immunization). Thereafter, dosing was continued for a period of fourteen (14) days with administration of FTS or PBS occurring every other day. In Protocol 2 (treatment regimen), FTS or PBS (control) was administered fourteen (14) days after porcine cardiac myosin immunization at a dose of 5 mg/kg (FTS post-EAM). Thereafter, dosing was continued for a period of seven (7) days with administration of FTS or PBS occurring every other day. Under both protocols, the Lewis rats were sacrificed at day 21 and hearts, lymph nodes and spleens were excised for histological and immunological analyses.\nLymphocytes were obtained from lymph nodes of FTS- and PBS-treated rats. The lymphocytes were homogenized in cold homogenization buffer containing protease inhibitors. Protein concentration was determined by the Bradford assay and samples containing 100 μg protein were used for determination of total Ras, total Erk, P-Erk, total Akt and P-Akt by Western immunoblotting using, respectively: pan-anti-Ras Ab (Ab03; Santa Cruz, Calif.), anti Erk Ab (Santa Cruz, Calif.), anti P-Erk Ab (Sigma), anti Akt Ab (Cell Signaling), and anti P-Akt Ab (Cell Signaling).\nEnhanced chemiluminescence (ECL) and densitometric analysis were performed as detailed in R. Haklai, M. G. Weisz, G. Elad, et al., Biochemistry 37:1306-1314 (1998)."}, "[4]": {"details": "human Phase I, doses up to 1800 mg/day; cited from earlier work"}, "[5]": {"test_system": "experimental autoimmune myocarditis (EAM)", "assay": "Histopathology, H&E: severity of myocarditis (Dallas criteria) in EAM", "type": "in vivo, Lewis rat", "details": "FTS 5 mg/kg i.p., mean±SE, control group 1.61±0.23, p<0.05", "procedure": "as §1, §2\nTwo groups of rats were induced to develop EAM by immunization with cardiac myosin according to two protocols. […]\nHearts were removed and fixed in 10% formalin, then embedded in paraffin. […] Every fifth section was examined for the presence of myocarditis by light microscopy, and was evaluated according to previously published criteria (the Dallas criteria) describing the severity of myocarditis as follows: severe (2)>50% of the heart involved; moderate (1)=10-50% involved; and minimal (0)=<10% involved, or normal. […]"}, "[6]": {"test_system": "active GTP-bound Ras", "assay": "Ras-GTP determination by glutathione S-transferase-RBD pull-down assay in lymphocytes of treated rats", "type": "in vivo, Lewis rat", "procedure": "as §4\nThe lymphocytes were prepared as mentioned above. Samples containing 1.5 mg protein used for determination of levels of active GTP-bound Ras by the glutathione S-transferase-RBD pull-down assay followed by Western immunoblotting with pan-anti-Ras Ab as detailed in G. Elad-Sfadia, R. Haklai, E. Ballan et al., J. Biol. Chem. 277:37169-75 (2002)."}, "[7]": {"test_system": "lymphocytes from lymph nodes of FTS-treated Lewis rats", "assay": "Lymphocyte proliferation assay (XTT) on lymphocytes from FTS-treated myosin-immunized rats", "type": "in vivo, Lewis rat", "procedure": "as §1, §2, §3\nLymphocyte proliferation was evaluated using XTT reagent, according to standard procedures, after 96 h of incubation. […]"}, "[8]": {"test_system": "lymphocytes from lymph nodes of rats with EAM", "assay": "Ex vivo proliferation assay with FTS (XTT, 96 h) on lymphocytes from EAM rats", "type": "cell-based, rat", "procedure": "FTS was provided by Concordia Pharmaceuticals, Inc. (Ft. Lauderdale, Fla.). FTS was stored in chloroform, which was evaporated under a stream of nitrogen immediately before use. The powder was dissolved in DMSO. This solution was diluted with RPMI/10% FCS to yield a 10 mM drug stock solution containing 10% DMSO. A portion of this solution was applied to the cells at a dilution of 1:100. Ex Vivo Proliferation Assay with FTS Five (5) rats with EAM were sacrificed on day fourteen (14). Lymphocytes were taken from lymph nodes, prepared as described and 1×10^5 cells/well seeded in 96 microwell plates. Lymphocytes were incubated in the presence of Myosin 2.5 μg/ml or Concavalin A in the presence of 0, 3.125, 6.25, 12.5, and 25 μM FTS. Lymphocyte proliferation was evaluated using XTT reagent after 96 h of incubation. To investigate the effect of FTS on the proliferative capacity of lymphocytes from EAM rats against myosin ex vivo, lymph nodes were excised from the EAM rodent models fourteen (14) days following myosin immunizations. Thereafter, lymphocytes were incubated in the presence of (A) myosin (2.5 μg/ml) and (B) Concavalin A (4 μg/ml) with varying concentrations of FTS. […] The proliferation rate was reduced in the presence of 50 μM FTS ex vivo by 48% (FIG. 1B). Thus, proliferation of lymphocytes against potential cardiac epitopes may be attenuated following FTS administration."}, "[9]": {"test_system": "myocardial dysfunction following myosin-induced EAM", "assay": "M-mode echocardiography after six weeks of FTS in EAM", "type": "in vivo, Lewis rat", "details": "FTS 5 mg/kg from 2 days before myosin immunization, every other day for six weeks; vs PBS-treated", "procedure": "as §1, §2\nAnother group of experiments was designed to study the effects of FTS on prevention of myocardial dysfunction following myosin-induced EAM. Under this regimen, FTS or PBS was given two (2) days before myosin immunization, then every other day for six (6) weeks (when compromised heart function is expected). After six (6) weeks, M-mode echocardiography was performed as described in George J, Biner S, Keren P, Barshack I, Goldberg I, Sherez J, Levitski A, Keren G, Roth A. Exp Mol. Pathol. 74(3):314-8 2003. […]"}, "[10]": {"details": "Protocol 1 FTS-treated rats vs control"}, "[11]": {"details": "Protocol 1 FTS-treated rats vs control animals"}}}
{"smiles": "CC(C)=CCC/C(C)=C/CC/C(C)=C/CSc1ccccc1C(=O)O", "note": "[FTS, S-farnesylthiosalicylic acid]", "values": [{"measurement": "IgG anti-myosin antibody levels", "setting": "[1]; Protocol 1 (prevention)", "value": "significantly reduced levels of IgG anti-myosin antibody"}, {"measurement": "IgG anti-myosin antibody levels", "setting": "[1]; Protocol 2 (treatment)", "value": "significantly reduced IgG anti-myosin antibody levels"}, {"measurement": "collagen deposition (scar formation)", "setting": "[2]; Protocol 1 (prevention)", "value": "reduced collagen deposition"}, {"measurement": "collagen deposition (scar formation)", "setting": "[2]; Protocol 2 (treatment)", "value": "reduced collagen deposition"}, {"measurement": "phospho-Akt level in lymphocytes", "setting": "[3]; [10]", "value": "significant decrease"}, {"measurement": "phospho-Erk level in lymphocytes", "setting": "[3]; [10]", "value": "significant decrease"}, {"measurement": "total Akt level in lymphocytes", "setting": "[3]; [10]", "value": "not affected"}, {"measurement": "total Erk level in lymphocytes", "setting": "[3]; [10]", "value": "not affected"}, {"measurement": "total Ras level in lymphocytes", "setting": "[3]; [11]", "value": "downregulated"}, {"measurement": "dose-limiting toxicities", "setting": "[4]", "value": "no dose-limiting toxicities"}, {"measurement": "severity of myocarditis (myocarditis score)", "setting": "[5]; Protocol 1 (prevention)", "value": "0.28±0.15 scale of 0-2 arbitrary units"}, {"measurement": "severity of myocarditis (myocarditis score)", "setting": "[5]; Protocol 2 (treatment)", "value": "0.33±0.24 scale of 0-2 arbitrary units"}, {"measurement": "Ras-GTP level in lymphocytes", "setting": "[6]; [11]", "value": "downregulated"}, {"measurement": "ratio of Ras-GTP to total Ras", "setting": "[6]; lymphocytes of Protocol 1 FTS-treated rats", "value": "did not significantly alter"}, {"measurement": "proliferation in response to non-specific mitogen Concavalin A", "setting": "[7]; FTS-treated rats vs control animals (data not shown)", "value": "not diminished"}, {"measurement": "decrease in lymphocyte proliferation in comparison with PBS", "setting": "[7]; Protocol 1 (prevention): FTS 5 mg/kg i.p. from 2 days before myosin immunization, every other day for 14 days, p<0.05", "value": "~35", "unit": "%"}, {"measurement": "reduction of proliferation rate of Concavalin A-treated lymphocytes", "setting": "[8]; Concavalin A 4 μg/ml, 50 μM FTS ex vivo", "value": 48, "unit": "%"}, {"measurement": "proliferation of Concavalin A-treated lymphocytes vs controls", "setting": "[8]; Concavalin A 4 μg/ml, varying concentrations of FTS ex vivo", "value": "dose-dependent reduction in proliferation"}, {"measurement": "reduction of lymphocyte proliferation to myosin", "setting": "[8]; myosin 2.5 μg/ml, FTS 25 and 50 μM, ex vivo, vs controls, p<0.05", "value": "79±7", "unit": "%"}, {"measurement": "fractional shortening (systolic parameter)", "setting": "[9]", "value": "improved"}, {"measurement": "left ventricular diastolic diameter", "setting": "[9]", "value": "improved"}]}
